According to paper PMC9684079, “Pharmacological targeting of glutamatergic neurons within the brainstem for weight reduction” (Nature Metabolism, 2022):

What was measured:
[1] = target: T1, Protein Serine/Threonine Kinase, ATK1 (PRKBA) (Homo sapiens, UniProt P31749); assay: biochemical; design: Cerep/Eurofins selectivity panel, enzymes, per cent inhibition at 10 uM; conditions: read-out: % Inhibition
T1 construct: gene AKT1

[2] = target: T2, Hcrtr1 (orexin 1 receptor) (Homo sapiens, UniProt O43613); assay: radioligand displacement of [3H]SB674042; also FLIPR Ca2+ antagonism in Chem-1 cells (IC50 […]); format: binding
T2 construct: membranes from CHO-K1 cells stably expressing HCRTR1

Phospholipase PLA2-I = target: T3, Phospholipase PLA2-I (Sus scrofa, UniProt P00592); assay: biochemical; design: Cerep/Eurofins selectivity panel, enzymes, per cent inhibition at 10 uM; conditions: read-out: % Inhibition
T3 construct: gene PLA2G1B
T3 sequence (P00592 whole entry): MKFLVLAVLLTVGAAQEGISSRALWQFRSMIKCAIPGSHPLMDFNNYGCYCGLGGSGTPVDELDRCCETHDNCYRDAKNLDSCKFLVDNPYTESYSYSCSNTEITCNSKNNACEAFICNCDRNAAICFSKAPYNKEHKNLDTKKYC

Androgen (Testosterone) = target: T4, Androgen (Testosterone) (Homo sapiens, UniProt P10275); assay: biochemical; design: Cerep/Eurofins selectivity panel, receptors, channels and transporters, per cent inhibition at 10 uM; conditions: read-out: % Inhibition
T4 construct: gene AR

Xanthine Oxidase = target: T5, Xanthine Oxidase (Bos taurus, UniProt P80457); assay: biochemical; design: Cerep/Eurofins selectivity panel, enzymes, per cent inhibition at 10 uM; conditions: read-out: % Inhibition
T5 construct: gene XDH
T5 sequence (P80457 whole entry): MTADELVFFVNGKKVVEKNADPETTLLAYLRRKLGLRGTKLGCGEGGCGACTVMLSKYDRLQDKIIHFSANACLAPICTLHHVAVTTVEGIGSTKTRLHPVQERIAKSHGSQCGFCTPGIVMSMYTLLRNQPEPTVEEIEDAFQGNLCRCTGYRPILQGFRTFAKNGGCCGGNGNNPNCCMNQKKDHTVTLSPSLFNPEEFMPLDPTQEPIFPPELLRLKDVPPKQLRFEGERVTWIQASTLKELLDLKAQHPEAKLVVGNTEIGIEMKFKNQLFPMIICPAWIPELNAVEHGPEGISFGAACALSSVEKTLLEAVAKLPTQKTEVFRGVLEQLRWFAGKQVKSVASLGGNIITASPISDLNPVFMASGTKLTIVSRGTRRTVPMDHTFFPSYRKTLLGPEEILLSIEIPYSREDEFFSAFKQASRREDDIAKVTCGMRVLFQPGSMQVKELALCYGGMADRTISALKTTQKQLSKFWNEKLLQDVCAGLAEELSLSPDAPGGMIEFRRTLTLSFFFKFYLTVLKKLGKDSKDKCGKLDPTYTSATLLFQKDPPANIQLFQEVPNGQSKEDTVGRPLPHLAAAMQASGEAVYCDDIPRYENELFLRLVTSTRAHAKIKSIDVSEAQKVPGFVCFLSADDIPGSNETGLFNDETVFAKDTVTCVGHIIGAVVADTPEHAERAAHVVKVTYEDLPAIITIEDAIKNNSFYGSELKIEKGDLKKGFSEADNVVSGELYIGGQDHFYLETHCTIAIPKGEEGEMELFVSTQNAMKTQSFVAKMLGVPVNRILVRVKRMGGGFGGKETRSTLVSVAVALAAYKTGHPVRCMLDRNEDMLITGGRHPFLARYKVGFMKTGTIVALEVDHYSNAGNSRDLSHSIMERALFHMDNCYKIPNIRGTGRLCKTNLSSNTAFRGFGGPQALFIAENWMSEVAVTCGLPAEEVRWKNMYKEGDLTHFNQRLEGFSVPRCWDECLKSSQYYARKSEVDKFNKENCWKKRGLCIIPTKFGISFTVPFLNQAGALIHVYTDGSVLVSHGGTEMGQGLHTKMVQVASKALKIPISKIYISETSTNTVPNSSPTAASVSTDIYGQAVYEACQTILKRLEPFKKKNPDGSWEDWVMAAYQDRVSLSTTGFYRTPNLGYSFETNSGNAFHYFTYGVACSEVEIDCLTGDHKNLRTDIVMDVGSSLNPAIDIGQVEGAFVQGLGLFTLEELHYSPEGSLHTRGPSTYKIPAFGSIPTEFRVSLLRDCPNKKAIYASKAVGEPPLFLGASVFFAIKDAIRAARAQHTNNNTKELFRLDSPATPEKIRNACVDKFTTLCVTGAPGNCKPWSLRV

mouse Hcrtr1 = target: T6, mouse Hcrtr1 (Mus musculus, UniProt P58307); assay: FLIPR Ca2+ flux, antagonism of orexin A response; format: cell-based
T6 construct: CHO-K1 cells expressing Gα16 and mouse Hcrtr1
T6 sequence (P58307 whole entry): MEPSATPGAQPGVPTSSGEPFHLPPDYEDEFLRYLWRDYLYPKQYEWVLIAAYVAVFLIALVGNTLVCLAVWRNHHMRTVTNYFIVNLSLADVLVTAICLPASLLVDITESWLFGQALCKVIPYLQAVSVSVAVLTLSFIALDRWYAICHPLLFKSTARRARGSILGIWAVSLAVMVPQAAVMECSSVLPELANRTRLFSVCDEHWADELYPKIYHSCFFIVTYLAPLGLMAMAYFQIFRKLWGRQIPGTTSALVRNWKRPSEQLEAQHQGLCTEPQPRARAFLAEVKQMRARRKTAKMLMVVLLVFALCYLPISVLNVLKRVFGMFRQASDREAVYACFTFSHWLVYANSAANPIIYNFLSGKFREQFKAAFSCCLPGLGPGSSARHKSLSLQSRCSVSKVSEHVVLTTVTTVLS

[3] = target: T7, Cholinesterase, Acetyl, ACES (Homo sapiens, UniProt P22303); assay: biochemical; design: Cerep/Eurofins selectivity panel, enzymes, per cent inhibition at 10 uM
T7 construct: gene ACHE

[4] = target: Protein Serine/Threonine Kinase, CDC2/CCNB1 (CDK1/cyclinB) (Homo sapiens, UniProt P06493); assay: biochemical; design: Cerep/Eurofins selectivity panel, enzymes, per cent inhibition at 10 uM; conditions: read-out: % Inhibition
[5] = target: T8, Serotonin (5-Hydroxytryptamine) 5-HT4 (Cavia porcellus, UniProt O70528); assay: biochemical; design: Cerep/Eurofins selectivity panel, receptors, channels and transporters, per cent inhibition at 10 uM; conditions: read-out: % Inhibition
T8 construct: gene HTR4

Insulin = target: T9, Insulin (Rattus norvegicus, UniProt P15127); assay: biochemical; design: Cerep/Eurofins selectivity panel, receptors, channels and transporters, per cent inhibition at 10 uM; conditions: read-out: % Inhibition
T9 construct: gene Insr

[6] = target: T10, Nitric Oxide Synthase, inducible (iNOS) (Mus musculus, UniProt P29477); assay: biochemical; design: Cerep/Eurofins selectivity panel, enzymes, per cent inhibition at 10 uM; conditions: read-out: % Inhibition
T10 construct: gene Nos2

[7] = target: T11, Growth Hormone Secretogogue (GHS, Ghrelin) (Homo sapiens, UniProt Q92847); assay: biochemical; design: Cerep/Eurofins selectivity panel, receptors, channels and transporters, per cent inhibition at 10 uM; conditions: read-out: % Inhibition
T11 construct: gene GHSR

[8] = target: Protein Tyrosine Kinase, LYN B (Homo sapiens, UniProt P07948); assay: biochemical; design: Cerep/Eurofins selectivity panel, enzymes, per cent inhibition at 10 uM; conditions: read-out: % Inhibition
Hcrtr2 = target: T12, Hcrtr2 (Homo sapiens, UniProt O43614); assay: radioligand displacement of [3H]EMPA (weak; functional IC50 […]); format: binding
T12 construct: membranes from CHO-K1 cells stably expressing HCRTR2

[9] = target: T13, Peptidase, Tumor necrosis factorα Converting enzyme (TACE) (Homo sapiens, UniProt P78536); assay: biochemical; design: Cerep/Eurofins selectivity panel, enzymes, per cent inhibition at 10 uM; conditions: read-out: % Inhibition
T13 construct: gene ADAM17
T13 sequence (P78536 whole entry): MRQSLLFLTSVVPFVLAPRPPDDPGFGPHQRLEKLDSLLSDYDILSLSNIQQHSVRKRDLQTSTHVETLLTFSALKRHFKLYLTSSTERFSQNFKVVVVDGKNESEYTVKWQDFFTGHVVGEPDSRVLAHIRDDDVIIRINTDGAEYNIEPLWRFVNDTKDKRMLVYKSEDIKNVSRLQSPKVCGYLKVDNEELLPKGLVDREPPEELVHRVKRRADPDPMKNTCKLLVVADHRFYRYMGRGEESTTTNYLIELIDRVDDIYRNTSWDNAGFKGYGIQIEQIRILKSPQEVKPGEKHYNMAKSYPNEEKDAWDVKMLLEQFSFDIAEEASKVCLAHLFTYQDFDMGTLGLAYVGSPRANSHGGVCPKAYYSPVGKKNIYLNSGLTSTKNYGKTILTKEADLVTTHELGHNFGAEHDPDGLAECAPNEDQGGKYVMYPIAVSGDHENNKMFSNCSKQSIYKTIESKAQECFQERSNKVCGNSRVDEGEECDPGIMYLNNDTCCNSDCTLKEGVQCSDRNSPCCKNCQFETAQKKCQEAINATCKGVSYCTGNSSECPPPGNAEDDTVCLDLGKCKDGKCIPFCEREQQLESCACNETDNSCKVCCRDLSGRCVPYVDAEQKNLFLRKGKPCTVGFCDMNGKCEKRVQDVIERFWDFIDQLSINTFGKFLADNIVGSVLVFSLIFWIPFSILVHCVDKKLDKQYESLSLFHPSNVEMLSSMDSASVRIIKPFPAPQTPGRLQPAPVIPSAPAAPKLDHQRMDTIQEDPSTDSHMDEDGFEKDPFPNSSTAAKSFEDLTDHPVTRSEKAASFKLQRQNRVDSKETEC

[10] = target: T14, Protein Serine/Threonine Kinase, IKK-1 (Homo sapiens, UniProt O15111); assay: biochemical; design: Cerep/Eurofins selectivity panel, enzymes, per cent inhibition at 10 uM; conditions: read-out: % Inhibition
T14 construct: gene CHUK

Glucocorticoid = target: T15, Glucocorticoid (Homo sapiens, UniProt P04150); assay: biochemical; design: Cerep/Eurofins selectivity panel, receptors, channels and transporters, per cent inhibition at 10 uM; conditions: read-out: % Inhibition
T15 construct: gene NR3C1

Anaphylatoxin C5a = target: T16, Anaphylatoxin C5a (Homo sapiens, UniProt P21730); assay: biochemical; design: Cerep/Eurofins selectivity panel, receptors, channels and transporters, per cent inhibition at 10 uM; conditions: read-out: % Inhibition
T16 construct: gene C5AR1

Calcium Channel N-type = target: T17, Calcium Channel N-type (Rattus norvegicus, UniProt Q02294); assay: biochemical; design: Cerep/Eurofins selectivity panel, receptors, channels and transporters, per cent inhibition at 10 uM; conditions: read-out: % Inhibition
T17 construct: gene Cacna1b
T17 sequence (Q02294 whole entry): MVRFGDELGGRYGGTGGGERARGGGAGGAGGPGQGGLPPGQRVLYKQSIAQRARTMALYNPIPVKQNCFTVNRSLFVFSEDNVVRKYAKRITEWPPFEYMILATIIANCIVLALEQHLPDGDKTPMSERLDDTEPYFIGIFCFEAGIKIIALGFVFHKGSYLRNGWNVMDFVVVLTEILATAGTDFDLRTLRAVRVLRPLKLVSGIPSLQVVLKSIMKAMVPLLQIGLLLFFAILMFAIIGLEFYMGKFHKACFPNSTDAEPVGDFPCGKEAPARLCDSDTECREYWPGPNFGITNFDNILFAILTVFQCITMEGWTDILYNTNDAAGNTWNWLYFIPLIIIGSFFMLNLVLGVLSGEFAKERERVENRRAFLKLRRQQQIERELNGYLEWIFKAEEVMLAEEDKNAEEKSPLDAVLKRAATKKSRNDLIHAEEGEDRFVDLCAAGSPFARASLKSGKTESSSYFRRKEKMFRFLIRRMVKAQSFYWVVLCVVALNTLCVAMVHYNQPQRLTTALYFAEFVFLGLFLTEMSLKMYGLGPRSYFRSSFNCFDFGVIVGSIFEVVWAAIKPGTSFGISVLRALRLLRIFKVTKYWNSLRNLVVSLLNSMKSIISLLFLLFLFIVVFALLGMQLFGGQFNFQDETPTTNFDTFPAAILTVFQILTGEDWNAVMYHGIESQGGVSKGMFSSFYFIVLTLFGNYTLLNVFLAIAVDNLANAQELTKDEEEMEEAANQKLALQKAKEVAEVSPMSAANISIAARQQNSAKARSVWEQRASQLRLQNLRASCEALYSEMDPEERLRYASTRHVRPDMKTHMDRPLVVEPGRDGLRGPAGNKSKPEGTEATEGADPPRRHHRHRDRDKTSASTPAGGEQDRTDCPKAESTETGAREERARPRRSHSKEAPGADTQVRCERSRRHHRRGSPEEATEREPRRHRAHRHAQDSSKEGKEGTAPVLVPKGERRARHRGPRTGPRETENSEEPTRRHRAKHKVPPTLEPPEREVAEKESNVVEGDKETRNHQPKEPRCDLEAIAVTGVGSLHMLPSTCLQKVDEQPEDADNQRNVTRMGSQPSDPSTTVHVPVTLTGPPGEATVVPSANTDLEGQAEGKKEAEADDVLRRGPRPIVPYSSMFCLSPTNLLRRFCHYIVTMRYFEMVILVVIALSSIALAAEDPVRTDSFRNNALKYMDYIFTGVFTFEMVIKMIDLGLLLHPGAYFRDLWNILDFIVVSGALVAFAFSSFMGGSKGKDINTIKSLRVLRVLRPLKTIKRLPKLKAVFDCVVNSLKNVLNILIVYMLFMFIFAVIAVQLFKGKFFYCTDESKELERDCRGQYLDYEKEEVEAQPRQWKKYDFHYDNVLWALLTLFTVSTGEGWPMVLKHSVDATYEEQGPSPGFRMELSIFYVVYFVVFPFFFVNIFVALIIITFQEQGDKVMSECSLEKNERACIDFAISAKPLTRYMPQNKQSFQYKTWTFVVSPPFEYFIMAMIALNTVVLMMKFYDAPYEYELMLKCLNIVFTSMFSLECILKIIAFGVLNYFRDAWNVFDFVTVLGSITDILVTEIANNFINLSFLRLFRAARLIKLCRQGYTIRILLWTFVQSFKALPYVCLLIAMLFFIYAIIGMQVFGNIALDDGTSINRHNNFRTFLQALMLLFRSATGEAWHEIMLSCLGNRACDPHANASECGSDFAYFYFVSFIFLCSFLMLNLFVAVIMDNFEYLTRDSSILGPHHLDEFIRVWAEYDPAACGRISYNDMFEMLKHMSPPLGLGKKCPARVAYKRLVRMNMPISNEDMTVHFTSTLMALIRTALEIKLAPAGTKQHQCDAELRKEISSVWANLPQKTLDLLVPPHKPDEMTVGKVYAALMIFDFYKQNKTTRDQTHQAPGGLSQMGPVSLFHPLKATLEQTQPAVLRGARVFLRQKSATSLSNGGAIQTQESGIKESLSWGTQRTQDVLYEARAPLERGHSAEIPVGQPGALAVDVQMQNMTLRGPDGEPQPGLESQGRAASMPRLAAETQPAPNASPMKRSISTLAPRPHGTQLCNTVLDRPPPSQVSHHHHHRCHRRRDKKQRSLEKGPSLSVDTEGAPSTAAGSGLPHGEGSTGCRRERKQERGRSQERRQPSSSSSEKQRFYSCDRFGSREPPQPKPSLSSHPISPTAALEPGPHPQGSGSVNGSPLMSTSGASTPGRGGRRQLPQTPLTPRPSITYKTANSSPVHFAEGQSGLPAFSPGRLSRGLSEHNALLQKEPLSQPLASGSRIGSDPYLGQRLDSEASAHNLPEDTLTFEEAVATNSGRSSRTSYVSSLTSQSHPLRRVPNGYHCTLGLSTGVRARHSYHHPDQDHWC

## C[C@]1(Nc2cnc(C(F)(F)F)cn2)CCC[C@@H]1NC(=O)c1ncccc1-n1nccn1 [CVN45502]
[1]
  inhibition at 10 µM: -7%
[2]
  Ki: 13.8 nM
Phospholipase PLA2-I
  inhibition at 10 µM: 10%
Androgen (Testosterone)
  inhibition at 10 µM: -5%
Xanthine Oxidase
  inhibition at 10 µM: 16%
Mouse Hcrtr1
  IC50: 18 nM
[3]
  inhibition at 10 µM: -8%
[4]
  inhibition at 10 µM: 14%
[5]
  inhibition at 10 µM: -4%
Insulin
  inhibition at 10 µM: 2%
[6]
  inhibition at 10 µM: 5%
[7]
  inhibition at 10 µM: -5%
[8]
  inhibition at 10 µM: 6%
Hcrtr2
  Ki: 4.66 pKi
[9]
  inhibition at 10 µM: 2%
[10]
  inhibition at 10 µM: -14%
Glucocorticoid
  inhibition at 10 µM: 13%
Anaphylatoxin C5a
  inhibition at 10 µM: 6%
Calcium Channel N-type
  inhibition at 10 µM: -1%
